“And” between values parts separate entries of the source, which are not always exact repeats. Equal entries are not always repeated.
Tested on: 695427-040-R-J1-PDC complex spheroid viability
Assay: Anticancer human tumor 695427-040-R-J1-PDC patient-derived colon adenocarcinoma cell line growth inhibition [RAS]
Details: for viability, T/C: stronger effect = lower value
Outline: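 Multi-cell-type spheroids: tumor cells plus HUVEC endothelial cells and mesenchymal stem cells. RAS-pathway inhibitors were combined with targeted agents, each dosed in half-log steps down from clinical Cmax, or from 10 microM when Cmax was unknown.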

[1] = curve of first compound, second compound 0.000949 µM
[2] = curve of first compound, second compound 0.003 µM
[3] = curve of first compound, second compound 0.00949 µM
[4] = curve of first compound, second compound 0.03 µM
[5] = curve of first compound, second compound 0.0949 µM
[6] = curve of first compound, second compound 0.3 µM
[7] = second compound 0.000949 µM, first compound 0.0316 µM
[8] = second compound 0.000949 µM, first compound 0.1 µM
[9] = second compound 0.000949 µM, first compound 0.316 µM
[10] = second compound 0.000949 µM, first compound 1 µM
[11] = second compound 0.000949 µM, first compound 3.16 µM
[12] = second compound 0.000949 µM, first compound 10 µM
[13] = second compound 0.003 µM, first compound 0.0316 µM
[14] = second compound 0.003 µM, first compound 0.1 µM
[15] = second compound 0.003 µM, first compound 0.316 µM
[16] = second compound 0.003 µM, first compound 1 µM
[17] = second compound 0.003 µM, first compound 3.16 µM
[18] = second compound 0.003 µM, first compound 10 µM
[19] = second compound 0.00949 µM, first compound 0.0316 µM
[20] = second compound 0.00949 µM, first compound 0.1 µM
[21] = second compound 0.00949 µM, first compound 0.316 µM
[22] = second compound 0.00949 µM, first compound 1 µM
[23] = second compound 0.00949 µM, first compound 3.16 µM
[24] = second compound 0.00949 µM, first compound 10 µM
[25] = second compound 0.03 µM, first compound 0.0316 µM
[26] = second compound 0.03 µM, first compound 0.1 µM
[27] = second compound 0.03 µM, first compound 0.316 µM
[28] = second compound 0.03 µM, first compound 1 µM
[29] = second compound 0.03 µM, first compound 3.16 µM
[30] = second compound 0.03 µM, first compound 10 µM
[31] = second compound 0.0949 µM, first compound 0.0316 µM
[32] = second compound 0.0949 µM, first compound 0.1 µM
[33] = second compound 0.0949 µM, first compound 0.316 µM
[34] = second compound 0.0949 µM, first compound 1 µM
[35] = second compound 0.0949 µM, first compound 3.16 µM
[36] = second compound 0.0949 µM, first compound 10 µM
[37] = second compound 0.3 µM, first compound 0.0316 µM
[38] = second compound 0.3 µM, first compound 0.1 µM
[39] = second compound 0.3 µM, first compound 0.316 µM
[40] = second compound 0.3 µM, first compound 1 µM
[41] = second compound 0.3 µM, first compound 3.16 µM
[42] = second compound 0.3 µM, first compound 10 µM
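Note: viability read after seven days of drug exposure.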
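Throughout, for viability, T/C: 100% = DMSO vehicle control viability.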

NC1c2ccccc2OC12CCN(c1cnc3c(N4CCCc5ncccc54)n[nH]c3n1)CC2 (stereo not given) + CCn1c(-c2cccnc2C(C)OC)c2c3cc(ccc31)N1CCOC(CC(NC(=O)C(C(C)C)N(C)C(=O)C3(F)CCN(C(=O)C#CC(C)(C)N(C)C)CC3)C(=O)N3CCCC(N3)C(=O)OCC(C)(C)C2)C1
IC50 [1]: 914 nM | IC50 [2]: 1370 nM | IC50 [3]: 973 nM | IC50 [4]: 623 nM | IC50 [5]: 940 nM | IC50 [6]: 665 nM | viability, T/C [7]: 80.3% | viability, T/C [8]: 78.3% | viability, T/C [9]: 61.7% | viability, T/C [10]: 49.1% | viability, T/C [11]: 50.5% | viability, T/C [12]: 43.2% | viability, T/C [13]: 88.9% | viability, T/C [14]: 70.5% | viability, T/C [15]: 60.6% | viability, T/C [16]: 45.7% | viability, T/C [17]: 55.7% | viability, T/C [18]: 38.6% | viability, T/C [19]: 95.2% | viability, T/C [20]: 58.1% | viability, T/C [21]: 62.7% | viability, T/C [22]: 54.6% | viability, T/C [23]: 54.1% | viability, T/C [24]: 32.8% | viability, T/C [25]: 79.3% | viability, T/C [26]: 63.4% | viability, T/C [27]: 53% | viability, T/C [28]: 45.1% | viability, T/C [29]: 50.6% | viability, T/C [30]: 35.3% | viability, T/C [31]: 67% | viability, T/C [32]: 67.4% | viability, T/C [33]: 53.2% | viability, T/C [34]: 47.4% | viability, T/C [35]: 46.2% | viability, T/C [36]: 31.7% | viability, T/C [37]: 75.3% | viability, T/C [38]: 46.4% | viability, T/C [39]: 60.4% | viability, T/C [40]: 51.8% | viability, T/C [41]: 38.9% | viability, T/C [42]: 27.1%

CCC(CC)c1cc(NC2CCC(N)C2)n2nccc2n1 (stereo not given) + CCn1c(-c2cc(N3CCN(C)CC3)cnc2C(C)OC)c2c3cc(ccc31)-c1csc(n1)CC(NC(=O)C1CC1C)C(=O)N1CCCC(N1)C(=O)OCC(C)(C)C2
IC50 [1]: 1750 nM | IC50 [2]: 1400 nM | IC50 [3]: 732 nM | IC50 [4]: 1210 nM | IC50 [5]: < 31.6 nM | IC50 [6]: < 31.6 nM | viability, T/C [7]: 104% | viability, T/C [8]: 84.6% | viability, T/C [9]: 83.7% | viability, T/C [10]: 84.6% | viability, T/C [11]: 13.7% | viability, T/C [12]: 12.3% | viability, T/C [13]: 92.8% | viability, T/C [14]: 99.8% | viability, T/C [15]: 85.1% | viability, T/C [16]: 66.4% | viability, T/C [17]: 9.9% | viability, T/C [18]: 10.9% | viability, T/C [19]: 90.3% | viability, T/C [20]: 72.1% | viability, T/C [21]: 69.9% | viability, T/C [22]: 45.8% | viability, T/C [23]: 10.7% | viability, T/C [24]: 12.9% | viability, T/C [25]: 51% | viability, T/C [26]: 56.1% | viability, T/C [27]: 64.8% | viability, T/C [28]: 58.7% | viability, T/C [29]: 7.23% | viability, T/C [30]: 15.1% | viability, T/C [31]: 44.6% | viability, T/C [32]: 47.3% | viability, T/C [33]: 43.9% | viability, T/C [34]: 41.6% | viability, T/C [35]: 11% | viability, T/C [36]: 15.3% | viability, T/C [37]: 29.7% | viability, T/C [38]: 39.4% | viability, T/C [39]: 45.8% | viability, T/C [40]: 27.8% | viability, T/C [41]: 6.23% | viability, T/C [42]: 15.5%

CC1(O)CCCC1n1c(=O)c(C(F)F)cc2cnc(NC3CCN(S(C)(=O)=O)CC3)nc21 (stereo not given)
viability, T/C (compound 0.0316 µM): 93.3% [middle of 4 runs] | viability, T/C (compound 0.1 µM): 98.2% [middle of 4 runs] | viability, T/C (compound 0.316 µM): 104% [middle of 4 runs] | viability, T/C (compound 3.16 µM): 123% (2×) and 107% and 97.5% | viability, T/C (compound 10 µM): 64.5% [middle of 4 runs] | IC50 (curve of compound): > 10000 nM

CC(C)n1nc(-c2ccc3oc(N)nc3c2)c2c(N)ncnc21 + CCn1c(-c2cccnc2C(C)OC)c2c3cc(ccc31)N1CCOC(CC(NC(=O)C(C(C)C)N(C)C(=O)C3(F)CCN(C(=O)C#CC(C)(C)N(C)C)CC3)C(=O)N3CCCC(N3)C(=O)OCC(C)(C)C2)C1
IC50 [1]: > 100 nM | IC50 [2]: > 100 nM | IC50 [3]: > 100 nM | IC50 [4]: > 100 nM | IC50 [5]: 95.3 nM | IC50 [6]: 89.7 nM | viability, T/C (second compound 0.000949 µM, first compound 0.000316 µM): 107% | viability, T/C (second compound 0.000949 µM, first compound 0.001 µM): 120% | viability, T/C (second compound 0.000949 µM, first compound 0.00316 µM): 78.7% | viability, T/C (second compound 0.000949 µM, first compound 0.01 µM): 90.6% | viability, T/C [7]: 74.3% | viability, T/C [8]: 56.2% | viability, T/C (second compound 0.003 µM, first compound 0.000316 µM): 107% | viability, T/C (second compound 0.003 µM, first compound 0.001 µM): 84.3% | viability, T/C (second compound 0.003 µM, first compound 0.00316 µM): 98.6% | viability, T/C (second compound 0.003 µM, first compound 0.01 µM): 83.5% | viability, T/C [13]: 62.1% | viability, T/C [14]: 57.3% | viability, T/C (second compound 0.00949 µM, first compound 0.000316 µM): 110% | viability, T/C (second compound 0.00949 µM, first compound 0.001 µM): 89.7% | viability, T/C (second compound 0.00949 µM, first compound 0.00316 µM): 85.5% | viability, T/C (second compound 0.00949 µM, first compound 0.01 µM): 74.2% | viability, T/C [19]: 73.5% | viability, T/C [20]: 56.5% | viability, T/C (second compound 0.03 µM, first compound 0.000316 µM): 108% | viability, T/C (second compound 0.03 µM, first compound 0.001 µM): 80.2% | viability, T/C (second compound 0.03 µM, first compound 0.00316 µM): 66% | viability, T/C (second compound 0.03 µM, first compound 0.01 µM): 78.3% | viability, T/C [25]: 77.7% | viability, T/C [26]: 62.5% | viability, T/C (second compound 0.0949 µM, first compound 0.000316 µM): 86.1% | viability, T/C (second compound 0.0949 µM, first compound 0.001 µM): 79.2% | viability, T/C (second compound 0.0949 µM, first compound 0.00316 µM): 66.8% | viability, T/C (second compound 0.0949 µM, first compound 0.01 µM): 76.9% | viability, T/C [31]: 73.4% | viability, T/C [32]: 48.9% | viability, T/C (second compound 0.3 µM, first compound 0.000316 µM): 83.2% | viability, T/C (second compound 0.3 µM, first compound 0.001 µM): 104% | viability, T/C (second compound 0.3 µM, first compound 0.00316 µM): 81% | viability, T/C (second compound 0.3 µM, first compound 0.01 µM): 74.8% | viability, T/C [37]: 64.5% | viability, T/C [38]: 48%

CC(=O)OC12COC1CC(O)C1(C)C(=O)C(O)C3=C(C)C(OC(=O)C(O)C(NC(=O)OC(C)(C)C)c4ccccc4)CC(O)(C(OC(=O)c4ccccc4)C21)C3(C)C (stereo not given)
viability, T/C (compound 0.0316 µM): 71.6% [middle of 4 runs] | viability, T/C (compound 0.1 µM): 68.3% [middle of 4 runs] | viability, T/C (compound 0.316 µM): 72.2% [middle of 4 runs] | viability, T/C (compound 1 µM): 76.2% [middle of 4 runs] | viability, T/C (compound 10 µM): 90.3% [middle of 4 runs] | IC50 (curve of compound): > 10000 nM

CC(C)n1nc(-c2ccc3oc(N)nc3c2)c2c(N)ncnc21
viability, T/C (compound 0.000316 µM): 101% [middle of 4 runs] | viability, T/C (compound 0.001 µM): 99.3% [middle of 4 runs] | viability, T/C (compound 0.00316 µM): 91.7% [middle of 4 runs] | viability, T/C (compound 0.01 µM): 81.6% [middle of 4 runs] | viability, T/C (compound 0.0316 µM): 73.5% [middle of 4 runs] | viability, T/C (compound 0.1 µM): 61.9% [middle of 4 runs] | IC50 (curve of compound): > 100 nM and 59.9 nM

— PubChem BioAssay AID2060888 (Molecular Pharmacology Branch, DTP, NCI, 2025)
